Test results reported in patent US6914045B2, “Glycopeptide antibiotics” (Wyeth Holdings Corporation, priority 2001, dated 2005).
≈ marks a conversion by molar mass, not a printed value.

Experiments:
[1] = clinical pathology (serum clinical chemistry) in mice; format: in vivo; settings: CD-1 mice, 20 mg/kg intravenously daily for 9 days, sera day 10
Method: 20-day-old CD-1 mice were divided into a vehicle control group (5 mice) and a treatment group (5 mice). Samples of glycopeptide antibiotics were administered at 20 mg/kg intravenously daily for 9 days.

Streptococcus sp. = assay: in vitro antibacterial evaluation, MIC by broth dilution; format: cell-based; settings: broth dilution, 18 hours at 35° C.
How it was run: (§1)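 Following National Committee for Clinical Laboratory Standards recommendations (M7-A2), susceptibility was measured by dilution in Muller-Hinton II […]. Bacteria were seeded at 5×10^5 CFU/mL against compound concentrations from 64 down to 0.06 μg/mL.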

Enterococcus sp. = assay: as above; format: cell-based; settings: broth dilution, 18 hours at 35° C.
How it was run: as §1

Staphylococcus sp. = assay: as above; format: cell-based; settings: broth dilution, 18 hours at 35° C.
How it was run: as §1

Escherichia coli = assay: as above; format: cell-based; settings: 18 hours at 35° C.
How it was run: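 Test organisms, which included recent clinical isolates resistant to methicillin, penicillin and/or vancomycin, were inoculated at 5×10^5 CFU/mL into Muller-Hinton II […] containing antibiotic at 64-0.06 μg/mL. Minimum inhibitory concentrations were then read as the lowest level inhibiting growth.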

[2] = anatomic pathology (histopathology of heart and kidney) in mice; format: in vivo; settings: CD-1 mice, 20 mg/kg intravenously daily for 9 days, necropsy day 10, microscopic histopathology
Method: Samples of tissues from necropsied mice were formalin-fixed, paraffin-embedded, sectioned, stained with hematoxylin and eosin, and examined microscopically. Histopathologic findings were recorded. These findings were subjectively graded on a scale corresponding to slight, mild, moderate, marked and severe as compared to untreated controls.

## CC(C)CC(=O)OC1C(OC2C(CO)OC(Oc3ccc(CC4NC(=O)C(C(C)c5ccccc5)NC(=O)CNC(=O)C(CO)NC(=O)C(CC5CNC(=N)N5C5OC(CO)C(O)C(O)C5O)NC(=O)C(CC5CNC(=N)N5)NC4=O)cc3)C(O)C2O)OC(CO)C(O)C1O (stereo not drawn) [Example 277b, Cyclo[3-(2-iminoimidazolidin-4-yl)alanyl-3-(3-hexogyranosyl-2-iminoimidazolidin-4-yl)-alanylserylglycyl-β-methylphenylalanyl-O-[4-O-[2-O-(3-methylbutanoyl)hexopyranosyl]-hexopyranosyl]tyrosyl]]
[1]
  Clinical Chemistry (Day 10) % of Control, ALT: +164%
  Clinical Chemistry (Day 10) % of Control, AST: +138%
  Clinical Chemistry (Day 10) % of Control, BUN: +113%
Streptococcus sp.; strain ATCC 6301
  MIC Streptococcus pneumoniae (ATCC 6301): 64 µg/mL (≈ 47.5 µM)
Streptococcus sp.; strain GC 1894
  MIC Streptococcus pneumoniae (GC 1894): >64 µg/mL
Streptococcus sp.; strain GC 4563
  MIC Streptococcus pyogenes (GC 4563): >64 µg/mL
Streptococcus sp.; strain GC 4564
  MIC Streptococcus agalactiae (GC 4564): >64 µg/mL
Streptococcus sp.; strain GC 4565
  MIC Streptococcus pneumoniae (GC 4565): >64 µg/mL
Enterococcus sp.; Enterococcus avium (GC 4558)
  MIC Enterococcus avium (GC 4558): >64 µg/mL
Enterococcus sp.; Enterococcus faecalis (ATCC 29212)
  MIC Enterococcus faecalis (ATCC 29212): >64 µg/mL
Enterococcus sp.; Enterococcus faecalis (GC 4553)
  MIC Enterococcus faecalis (GC 4553): >64 µg/mL
Enterococcus sp.; Enterococcus faecalis (GC 4554)
  MIC Enterococcus faecalis (GC 4554): >64 µg/mL
Enterococcus sp.; Enterococcus faecalis (GC 6189)
  MIC Enterococcus faecalis (GC 6189): >64 µg/mL
Enterococcus sp.; Enterococcus faecium (GC 2243)
  MIC Enterococcus faecium (GC 2243): >64 µg/mL
Enterococcus sp.; Enterococcus faecium (GC 4556)
  MIC Enterococcus faecium (GC 4556): >64 µg/mL
Enterococcus sp.; Enterococcus faecium (GC 4557)
  MIC Enterococcus faecium (GC 4557): >64 µg/mL
Enterococcus sp.; strain ATCC 29212
  MIC Enterococcus faecalis (ATCC 29212): >64 µg/mL
Enterococcus sp.; strain GC 2242
  MIC Enterococcus faecalis (GC 2242): >64 µg/mL
Enterococcus sp.; strain GC 2243
  MIC Enterococcus faecium (GC 2243): >64 µg/mL
Enterococcus sp.; strain GC 2691
  MIC Enterococcus faecalis (GC 2691): >64 µg/mL
Enterococcus sp.; strain GC 3059
  MIC Enterococcus faecalis (GC 3059): >64 µg/mL
Enterococcus sp.; strain GC 4552
  MIC Enterococcus faecalis (GC 4552): >64 µg/mL
Enterococcus sp.; strain GC 4553
  MIC Enterococcus faecalis (GC 4553): >64 µg/mL
Enterococcus sp.; strain GC 4554
  MIC Enterococcus faecalis (GC 4554): >64 µg/mL
Enterococcus sp.; strain GC 4556
  MIC Enterococcus faecium (GC 4556): >64 µg/mL
Enterococcus sp.; strain GC 4557
  MIC Enterococcus faecium (GC 4557): >64 µg/mL
Enterococcus sp.; strain GC 4558
  MIC Enterococcus avium (GC 4558): >64 µg/mL
Enterococcus sp.; strain GC 6189
  MIC Enterococcus faecalis (GC 6189): >64 µg/mL
Staphylococcus sp.
  MIC Coagulase Negative Staphylococcus (GC 4547): >64 µg/mL
  MIC Coagulase Negative Staphylococcus (GC 4548): >64 µg/mL
  MIC Coagulase Negative Staphylococcus (GC 4549): >64 µg/mL
  MIC Coagulase Negative Staphylococcus (GC 4551): >64 µg/mL
  MIC Coagulase Negative Staphylococcus (GC 6257): >64 µg/mL
  MIC Staphylococcus aureus (ATCC 29213): >64 µg/mL
  MIC Staphylococcus aureus (GC 1131): >64 µg/mL
  MIC Staphylococcus aureus (GC 3051): >64 µg/mL
  MIC Staphylococcus aureus (GC 3053): >64 µg/mL
  MIC Staphylococcus aureus (GC 4541): >64 µg/mL
  MIC Staphylococcus aureus (GC 4542): >64 µg/mL
  MIC Staphylococcus aureus (GC 4544): >64 µg/mL
  MIC Staphylococcus aureus (GC 4545): >64 µg/mL
  MIC Staphylococcus aureus-SMITH (GC 4543): >64 µg/mL
  MIC Staphylococcus haemolyticus (GC 4546): >64 µg/mL
Staphylococcus sp.; strain ATCC 29213
  MIC Staphylococcus aureus (ATCC 29213): >64 µg/mL
Staphylococcus sp.; strain GC 1131
  MIC Staphylococcus aureus (GC 1131): >64 µg/mL
Staphylococcus sp.; strain GC 3051
  MIC Staphylococcus aureus (GC 3051): >64 µg/mL
Staphylococcus sp.; strain GC 3053
  MIC Staphylococcus aureus (GC 3053): >64 µg/mL
Staphylococcus sp.; strain GC 4541
  MIC Staphylococcus aureus (GC 4541): >64 µg/mL
Staphylococcus sp.; strain GC 4542
  MIC Staphylococcus aureus (GC 4542): >64 µg/mL
Staphylococcus sp.; strain GC 4544
  MIC Staphylococcus aureus (GC 4544): >64 µg/mL
Staphylococcus sp.; strain GC 4545
  MIC Staphylococcus aureus (GC 4545): >64 µg/mL
Staphylococcus sp.; strain GC 4546
  MIC Staphylococcus haemolyticus (GC 4546): >64 µg/mL
Staphylococcus sp.; strain GC 4547
  MIC Coagulase Negative Staphylococcus (GC 4547): >64 µg/mL
Staphylococcus sp.; strain GC 4548
  MIC Coagulase Negative Staphylococcus (GC 4548): >64 µg/mL
Staphylococcus sp.; strain GC 4549
  MIC Coagulase Negative Staphylococcus (GC 4549): >64 µg/mL
Staphylococcus sp.; strain GC 4551
  MIC Coagulase Negative Staphylococcus (GC 4551): >64 µg/mL
Staphylococcus sp.; strain GC 6257
  MIC Coagulase Negative Staphylococcus (GC 6257): >64 µg/mL
Staphylococcus sp.; strain SMITH GC 4543
  MIC Staphylococcus aureus-SMITH (GC 4543): >64 µg/mL
Escherichia coli; Escherichia coli (ATCC 25922)
  MIC Escherichia coli (ATCC 25922): >64 µg/mL
Escherichia coli; Escherichia coli (GC 4559)
  MIC Escherichia coli (GC 4559): >64 µg/mL
Escherichia coli; Escherichia coli (GC 4560)
  MIC Escherichia coli (GC 4560): 32 µg/mL (≈ 23.7 µM)
[2]
  Anatomical Pathology (Day 10), Heart: 0
  Anatomical Pathology (Day 10), Kidney: +
